Laboratory results published in EP0556660A1, “Utilisation of fatty alpha-hydroxy acids and the compositions containing them” (Beiersdorf Aktiengesellschaft, priority 1992, dated 1993).

What was measured:
[1] = Free Fe2+ after addition of test substance, photometric with 2,2'-Bipyridin; format: physicochemical; conditions: 1 mmol test substance mixed with 1 mmol Fe²⁺
Procedure: (§1) Der Testpuffer (100 mM KCl, 10 mM HEPES, 1 mM EGTA 0,5 mM CaCl₂, pH 7,1) wurden mit je 1 mM der Testsubstanz versetzt. Entstehende Niederschläge wurden abfiltriert. Das Filtrat wurde mit KOH auf pH 7,1 eingestellt und mit 1 µM FURA 2 versetzt. Die Konzentration an Ca²⁺ wurde fluorimetrisch bestimmt (Anregung 340 nm, 359 nm, 380 nm, Emission 510 nm). b) Konzentration an freiem Fe²⁺ nach Zugabe von 1 mmol alpha-Hydroxypalmitinsäure
1 mmol Testsubstanz wurde mit 1 mmol Fe²⁺ versetzt. Entstehende Niederschläge wurden abfiltriert. Die Filtrate wurden mit 2,2'-Bipyridin versetzt und bei 565 nm photometrisch vermessen.

[2] = Free Ca2+ after addition of test substance, fluorimetric with FURA 2; format: physicochemical; conditions: free Ca²⁺ after addition of 1 mmol (1 mM) test substance; pH 7,1; control without fatty acid 200
Procedure: Die erfindungsgemäßen alpha-Hydroxyfettsäuren haben gegenüber Schwermetallionen, z.B. Fe²⁺ oder Erdalkali-Ionen wie Ca²⁺ eine hohe Bindungsfähigkeit, wie die folgende Untersuchung zeigt: a) Konzentration an freiem Ca²⁺ nach Zugabe von 1 mmol Testsubstanz
as §1

Salmonella livingstone = assay: Minimal inhibitory concentration; format: cell-based; conditions: 72 h incubation
Procedure: (§2) Bestimmung der minimalen Hemmkonzentration Eine frische Übernachtkultur des Testorganismus wurde 1:10⁴ in Nährmedium (5 g/ltr Tryptone, 3 g/ltr Hefeextrakt, pH 7,0) verdünnt und 3h inkubiert (30° C, 250 rpm). Anschließend wurde alpha-Hydroxy-palmitinsäure (D) in einer Endkonzentration von 2,0%; 1,5%; 1,0%; 0,75%; 0,5%; 0,25%; 0,1% und 0,06% zugegeben. Nach 72 h Inkubationszeit wurden der Bakterientiter durch Verdünnung und Ausplattierung überprüft. Bei den Ansätzen, bei denen keine Bakterien nachweisbar waren, wurde 1 ml des Ansatzes mit 9 ml Nährmedium versetzt und über Nacht inkubiert (30° C, 250 rpm). […]

Escherichia coli = assay: Minimal inhibitory concentration; format: cell-based; conditions: 72 h incubation
Procedure: as §2

[3] = test system: Acinetobacter calcoaceticus; assay: Minimal inhibitory concentration; format: cell-based; conditions: 72 h incubation
Procedure: as §2

Corynebacterium xerosis = assay: Minimal inhibitory concentration; format: cell-based; conditions: 72 h incubation
Procedure: as §2

[4] = test system: Staphylococcus epidermidis; assay: Minimal inhibitory concentration; format: cell-based; conditions: 72 h incubation
Procedure: as §2

Pseudomonas putida = assay: Minimal inhibitory concentration; format: cell-based; conditions: 72 h incubation
Procedure: as §2

Pseudomonas aeruginosa = assay: Minimal inhibitory concentration; format: cell-based; conditions: 72 h incubation
Procedure: as §2

Klebsiella pneumoniae = assay: Minimal inhibitory concentration; format: cell-based; conditions: 72 h incubation
Procedure: as §2

Micrococcus luteus = assay: Minimal inhibitory concentration; format: cell-based; conditions: 72 h incubation
Procedure: as §2

| Compound | Konz. Fe²⁺ [1] [µmol] | Konz. Ca²⁺ [2] [nmol] | other results |
| --- | --- | --- | --- |
| O=C(O)CC(O)(CC(=O)O)C(=O)O [Citronensäure] | 110 | 139 |  |
| O=C(O)CN(CCN(CC(=O)O)CC(=O)O)CC(=O)O [EDTA] |  | 25 |  |
| CCCCCCCCCCCCCC(=O)O [Myristinsäure] |  | 233 |  |
| CCCCCCCCCCCCCCCC(=O)O [Palmitinsäure] |  | 249 |  |
| CCCCCCCCCCCCCC[C@@H](O)C(=O)O [alpha-OH-Hexadecansäure (D), alpha-Hydroxy-hexadecansäure] |  |  | Minimale Hemmkonzentration (Salmonella livingstone): 0,50%; Minimale Hemmkonzentration (Escherichia coli): 0,50%; Minimale Hemmkonzentration [3]: 0,75%; Minimale Hemmkonzentration (Corynebacterium xerosis): 0,10%; Minimale Hemmkonzentration [4]: 0,10%; Minimale Hemmkonzentration (Pseudomonas putida): 0,10%; Minimale Hemmkonzentration (Pseudomonas aeruginosa): 0,25%; Minimale Hemmkonzentration (Klebsiella pneumoniae): 0,50%; Minimale Hemmkonzentration (Micrococcus luteus): 0,25% |

More lines, main results first:

| Konz. Fe²⁺ [1] [µmol] | Konz. Ca²⁺ [2] [nmol] | Compound | other results |
| --- | --- | --- | --- |
| 100 | 200 | O=C(O)C(O)c1ccccc1 (stereo not shown) [Mandelsäure] |  |
|  | 32 | CCCCCCCCCCCCC(O)C(=O)O (stereo not drawn) [alpha-Hydroxy-myristinsäure] |  |
| 20 | 38 | CCCCCCCCCCCCCCC(O)C(=O)O (stereo not drawn) [alpha-Hydroxypalmitinsäure] |  |
